Assay in all cases: MIC in agar
What all share (format): cell-based

One test deals with Bacillus subtilis A. The settings on record: in agar; Bacillus subtilis A; read-out: M.I.C. The source says:
(§1) a. Antibacterial effectiveness of compounds of
(§2) Examples 6 and 7 in agar.
(§3) (μg/ml) in agar of compound

For the next test, the system named is Citrobacter freundii E8. The settings on record: in agar; Citrobacter freundii E8; read-out: M.I.C.
Description: as §1, §2, §3

The subject of the next test is Enterobacter cloacae N1. The settings on record: in agar; Enterobacter cloacae N1; read-out: M.I.C.
Description: as §1, §2, §3

In the next test the test system is Escherichia coli 0111.
Description: as §1, §2, §3

The next test concerns Escherichia coli JT39.
Description: as §1, §2, §3

The subject of the next test is Klebsiella aerogenes A. The settings on record: in agar; Klebsiella aerogenes A; read-out: M.I.C.
Description: as §1, §2, §3

The next test relates to Proteus mirabilis C977. The settings on record: in agar; Proteus mirabilis C977; read-out: M.I.C.
Description: as §1, §2, §3

The subject of the next test is Proteus rettgeri WM16. The settings on record: Providencia rettgeri; in agar; Proteus rettgeri WM16; read-out: M.I.C.
Description: as §1, §2, §3

For the next test, the system named is Proteus vulgaris W091. The settings on record: in agar; Proteus vulgaris W091; read-out: M.I.C.
Description: as §1, §2, §3

Another test relates to Pseudomonas aeruginosa A. The settings on record: in agar; Pseudomonas aeruginosa A; read-out: M.I.C.
Description: as §1, §2, §3

Test [1] relates to Salmonella typhimurium CT10. The settings on record: Salmonella enterica; in agar; Salmonella typhimurium CT10; read-out: M.I.C.
Description: as §1, §2, §3

Another test deals with Serratia marcescens US20. The settings on record: in agar; Serratia marcescens US20; read-out: M.I.C.
Description: as §1, §2, §3

Another test has as its system Shigella sonnei MB 11967. The settings on record: MB11967.
Description: as §1, §2, §3

Test [2] concerns Staphylococcus aureus 1517. The settings on record: in agar; Staphylococcus aureus 1517; read-out: M.I.C.
Description: as §1, §2, §3

In test [3] the test system is Staphylococcus aureus Oxford. The settings on record: in agar; Staphylococcus aureus Oxford; read-out: M.I.C.
Description: as §1, §2, §3

The subject of a further test is Streptococcus faecalis I. The settings on record: Enterococcus faecalis; in agar; Streptococcus faecalis I; read-out: M.I.C.
Description: as §1, §2, §3

For test [4], the system named is Streptococcus pneumoniae CN33.
Description: as §1, §2, §3

For test [5], the system named is Streptococcus pyogenes CN10. The settings on record: in agar; Streptococcus pyogenes CN10; read-out: M.I.C.
Description: as §1, §2, §3

Another test relates to E. coli ESS. The settings on record: Escherichia coli. The text has this: | (μg/ml) in agar of compound
Another test concerns Proteus morganii 1580. The settings on record: Morganella morganii; in agar; Proteus morganii 1580; read-out: M.I.C.
Description: as §1, §2, §3

Test [6] concerns Staphylococcus aureus Russell. The settings on record: in agar; Staphylococcus aureus Russell; read-out: M.I.C.
Description: as §1, §2, §3

≈ marks a conversion by molar mass, not a printed value. Counter-ions that a name gives are not always drawn. Like-named read-outs stand apart in the source and are kept apart here. Some results are limits rather than exact numbers.

Consider `C[C@H](O)[C@@H]1C(=O)N2C(C(=O)O)=C(S/C=C\C(=O)OCCN)C[C@H]12` [Example 20, (5R,6R)-3-[2-(Z)-(2-Aminoethoxycarbonyl)ethenylthio]-6-[(S)-1-hydroxyethyl]-7-oxo-1-azabicyclo[3.2.0]hept-2-ene-2-carboxylic acid], for which the MIC with Bacillus subtilis A was ≤ 0.1 µg/mL; with Citrobacter freundii E8 it was 0.2 µg/mL (≈ 0.584 µM); with Enterobacter cloacae N1 it was 0.2 µg/mL (≈ 0.584 µM); against Escherichia coli 0111, ≤ 0.1 µg/mL; in the test on Escherichia coli JT39 (Escherichia coli, JT39), 0.2 µg/mL (≈ 0.584 µM); in the test on Klebsiella aerogenes A, ≤ 0.1 µg/mL. Moreover, the MIC in the test on Proteus mirabilis C977 was 0.4 µg/mL (≈ 1.17 µM); with Proteus rettgeri WM16 it was 0.2 µg/mL (≈ 0.584 µM); with Proteus vulgaris W091, 0.4 µg/mL (≈ 1.17 µM); in the test with Pseudomonas aeruginosa A it was 25 µg/mL (≈ 73 µM); in test [1], ≤ 0.1 µg/mL; in the test on Serratia marcescens US20, ≤ 0.1 µg/mL. The MIC is 0.2 µg/mL (≈ 0.584 µM) in the test with Shigella sonnei MB 11967; 0.2 µg/mL (≈ 0.584 µM) in test [2]; ≤ 0.1 µg/mL in [3]; ≤ 0.1 µg/mL with Streptococcus faecalis I; ≤ 0.1 µg/mL in [4]; ≤ 0.1 µg/mL in test [5]. Moreover, the MIC in the test on E. coli ESS was ≤ 0.1 µg/mL.

As for `C[C@H](O)[C@@H]1C(=O)N2C(C(=O)O)=C(S/C=C\C(=O)O)C[C@H]12` [Example 24, The Disodium salt of (5R,6R)-3-[(Z)-2-carboxyethenylthio]-6-[(S)-1-hydroxyethyl]-7-oxo-1-azabicyclo[3.2.0]hept-2-ene-2-carboxylic acid], the MIC is ≤ 0.1 µg/mL with Bacillus subtilis A; 1.2 µg/mL with Citrobacter freundii E8; 0.5 µg/mL in the test with Enterobacter cloacae N1; 0.2 µg/mL against Escherichia coli 0111; 5 µg/mL in the test with Escherichia coli JT39 (in agar, Escherichia coli JT39, read-out: M.I.C.); 0.2 µg/mL in the test on Klebsiella aerogenes A. Further, the MIC in the test with Proteus mirabilis C977 is 0.5 µg/mL; with Proteus morganii 1580 it was 0.5 µg/mL; in the test with Proteus rettgeri WM16, 0.5 µg/mL; with Proteus vulgaris W091, 0.5 µg/mL; in the test on Pseudomonas aeruginosa A, > 50 µg/mL; in test [1] it was 0.5 µg/mL. Also, the MIC with Serratia marcescens US20 came out at 2.5 µg/mL; against Shigella sonnei MB 11967 it was 0.5 µg/mL; in test [2] it was 5 µg/mL; in [3], 0.5 µg/mL; in test [6] it was 0.5 µg/mL; in the test on Streptococcus faecalis I it was 2.5 µg/mL. Further, the MIC (in test [4]; in test [5]; in the test with E. coli ESS) was ≤ 0.1 µg/mL throughout.

Values taken from US4473578A, “β-Lactam antibiotics and their use” (Beecham Group Limited, priority 1979, dated 1984).
